Measurements from patent US12053529B2, “Amino-reactive positively charged ATRP initiators that maintain their positive charge during synthesis of biomacro-initiators” (Carnegie Mellon University, priority 2018, dated 2024).

Experiments:
[1] = target: acetylcholinesterase (AChE) from Electrophorus electricus, neutral initiator (N)-pSMA (Electrophorus electricus, UniProt O42275); assay: Michaelis-Menten kinetics, acetylthiocholine iodide hydrolysis, AChE (N)-pSMA; format: biochemical, Electrophorus electricus (electric eel); settings: pH 7.4, 37° C., DTNB
acetylcholinesterase (AChE) from Electrophorus electricus, neutral initiator (N)-pSMA, sequence (O42275 24-633): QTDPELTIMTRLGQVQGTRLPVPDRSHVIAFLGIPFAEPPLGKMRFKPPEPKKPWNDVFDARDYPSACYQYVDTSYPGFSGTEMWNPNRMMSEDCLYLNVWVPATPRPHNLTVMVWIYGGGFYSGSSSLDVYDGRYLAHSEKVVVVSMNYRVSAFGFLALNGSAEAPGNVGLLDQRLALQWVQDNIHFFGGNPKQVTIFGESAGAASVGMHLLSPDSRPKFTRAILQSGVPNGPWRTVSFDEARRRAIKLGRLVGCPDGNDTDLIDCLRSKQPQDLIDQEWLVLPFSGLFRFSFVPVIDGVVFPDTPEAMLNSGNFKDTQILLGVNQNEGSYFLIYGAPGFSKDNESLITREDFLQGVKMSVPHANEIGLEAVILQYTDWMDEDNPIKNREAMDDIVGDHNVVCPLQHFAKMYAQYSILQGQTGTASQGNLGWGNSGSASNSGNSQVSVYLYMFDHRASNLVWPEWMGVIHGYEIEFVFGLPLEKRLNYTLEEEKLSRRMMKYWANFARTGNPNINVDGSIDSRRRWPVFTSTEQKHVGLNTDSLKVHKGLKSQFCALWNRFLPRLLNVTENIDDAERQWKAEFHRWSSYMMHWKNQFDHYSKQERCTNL
Protocol: (§1) CT and Lysozyme were used as received. AChE and Uricase were dialyzed in 25 mM sodium phosphate (pH 7.0) using a 25 kDa molecular weight cutoff dialysis tube in a refrigerator for 24 hours and then lyophilized. Copper (II) chloride, sodium ascorbate, 1,1,4,7,10,10-hexamethyltriethylenetetramine (HMTETA), 2-bromo-2-methylpropionyl bromide, 3-(dimethylamino)-1-propylamine, N,N′-diisopropylcarbodimine, fluorescamine, acetylthiocholine iodide, 5,5′-dithiobis(2-nitrobenzoic acid) (DTNB) were purchased from Sigma Aldrich. 4-bromobutyric acid and N-hydroxysuccinimide were purchased from TCI USA (Portland, OR). Micro BCA assay kit was purchased from Thermo Fisher Scientific.
(§2) AChE: 100 μL of NHS-functionalized ATRP initiator solution in DMSO (12.7 μmol, 4.3 mg for neutral and 5.5 mg for positive initiator, respectively) was added to AChE solution (7 mg of AChE in 10 mL of 100 mM phosphate (pH 8.0)) and stirred at room temperature for 2 hours. […] The concentration of AChE initiator conjugates was determined using a Micro BCA Assay Kit.
(§3) CT-pCBMA and pSMA conjugate synthesis: A solution of monomer (230 mg for CBMA and 246 mg for SMA, 1.0 mmol respectively) and CT-initiator (23 mg for neutral and 25 mg for positive initiator, 10 μmol of initiator) in 100 mM sodium phosphate (20 mL, pH 7) was sealed and bubbled with nitrogen gas in an ice bath for 30 minutes. […] Conjugate CT content was determined by BCA assay as described elsewhere (Lee et al. 2005, supra). […]
AChE: Acetylthiocholine iodide (0-100 μL of 10 mM in 100 mM sodium phosphate buffer (pH 7.4)) and 10 μL of DTNB solution (50 mM in DMSO) was mixed with 100 mM sodium phosphate (980-880 μL, pH 7.4). […] The initial rate was monitored by recording the increasing in absorbance as 412 nm using an UV-VIS absorbance spectrometer with a temperature controlled cell folder at 37° C. Michaelis-Menten parameters were determined by nonlinear curve fitting of initial rate versus substrate concentration plots using Prism 7 software (GraphPad).

[2] = target: acetylcholinesterase (AChE) from Electrophorus electricus, positive initiator (+) (Electrophorus electricus, UniProt O42275); assay: Michaelis-Menten kinetics, acetylthiocholine iodide hydrolysis, AChE-positive initiator; format: biochemical, Electrophorus electricus (electric eel); settings: AChE-positive initiator vs AChE-neutral initiator
acetylcholinesterase (AChE) from Electrophorus electricus, positive initiator (+), sequence (O42275 24-633): as above
Protocol: as §1, §2
AChE: Acetylthiocholine iodide (0-100 μL of 10 mM in 100 mM sodium phosphate buffer (pH 7.4)) and 10 μL of DTNB solution (50 mM in DMSO) was mixed with 100 mM sodium phosphate (980-880 μL, pH 7.4). […] Michaelis-Menten parameters were determined by nonlinear curve fitting of initial rate versus substrate concentration plots using Prism 7 software (GraphPad).

[3] = tested on: Uricase from Candida sp., neutral initiator (N); assay: Michaelis-Menten kinetics, uric acid oxidation, uricase-neutral initiator; format: biochemical; settings: pH 8.5, 37° C.
Protocol: as §1
(§4) Uricase: 200 μL of NHS-functionalized ATRP initiator solution in DMSO (100 μmol, 34 mg for neutral and 52 mg for positive initiator, respectively) was added to Uricase solution (20 mg of […] Uricase in 20 mL of 100 mM phosphate (pH 7.0)) and stirred at room temperature for 2 hours. Uricase-initiator conjugates were dialyzed in 25 mM sodium phosphate (pH 7.0) using a 25 kDa molecular cutoff dialysis tube in a refrigerator for 24 hours and then lyophilized. The concentration of Uricase initiator conjugates was determined using a Micro BCA Assay Kit (ThermoFisher Scientific).
(§5) Uricase: Uric acid (0-400 μL of 300 μM in 50 mM sodium tetraborate (pH 8.5)) was mixed with 50 mM sodium phosphate ([…], pH 8.5). Native, initiator and polymer conjugate solution (10 μL, 20 μM of Uricase) was added to the substrate solution. The initial rate was monitored by recording the decreasing in absorbance as 290 nm using an UV-VIS absorbance spectrometer with a temperature controlled cell folder at 37° C. Michaelis-Menten parameters were determined by nonlinear curve fitting of initial rate versus substrate concentration plots using Prism 7 software (GraphPad).

[4] = tested on: Uricase from Candida sp., positive initiator (+); assay: Michaelis-Menten kinetics, uric acid oxidation, uricase-positive initiator; format: biochemical; settings: pH 8.5, 37° C.
Protocol: as §1, §4, §5

[5] = tested on: Uricase from Candida sp., neutral initiator (N)-pCBMA; assay: Michaelis-Menten kinetics, uric acid oxidation, uricase (N)-pCBMA; format: biochemical; settings: pH 8.5, 37° C.
Protocol: as §1
as §4, with “Uricase-initiator conjugates were dialyzed in 25 mM sodium phosphate (pH 7.0) using a 25 kDa molecular cutoff dialysis tube in a refrigerator for 24 hours and then lyophilized.” left out
as §3
as §5, with “Native, initiator and polymer conjugate solution (10 μL, 20 μM of Uricase) was added to the substrate solution.” left out

[6] = tested on: Uricase from Candida sp., positive initiator (+)-pCBMA; assay: Michaelis-Menten kinetics, uric acid oxidation, uricase (+)-pCBMA; format: biochemical; settings: pH 8.5, 37° C.
Protocol: as §1
as §4, with “Uricase-initiator conjugates were dialyzed in 25 mM sodium phosphate (pH 7.0) using a 25 kDa molecular cutoff dialysis tube in a refrigerator for 24 hours and then lyophilized.” left out
as §3
as §5, with “Native, initiator and polymer conjugate solution (10 μL, 20 μM of Uricase) was added to the substrate solution.” left out

[7] = tested on: Uricase from Candida sp., positive initiator (+)-pSMA; assay: Michaelis-Menten kinetics, uric acid oxidation, uricase (+)-pSMA; format: biochemical; settings: pH 8.5, 37° C.
Protocol: as §1
as §4, with “Uricase-initiator conjugates were dialyzed in 25 mM sodium phosphate (pH 7.0) using a 25 kDa molecular cutoff dialysis tube in a refrigerator for 24 hours and then lyophilized.” left out
as §3
as §5, with “Native, initiator and polymer conjugate solution (10 μL, 20 μM of Uricase) was added to the substrate solution.” left out

[8] = tested on: Uricase from Candida sp., native; assay: Michaelis-Menten kinetics, uric acid oxidation, native uricase; format: biochemical; settings: pH 8.5, 37° C.
Protocol: as §1, §5

[9] = tested on: Uricase from Candida sp., neutral initiator (N)-pSMA; assay: Michaelis-Menten kinetics, uric acid oxidation, uricase (N)-pSMA; format: biochemical; settings: pH 8.5, 37° C.
Protocol: as §1
as §4, with “Uricase-initiator conjugates were dialyzed in 25 mM sodium phosphate (pH 7.0) using a 25 kDa molecular cutoff dialysis tube in a refrigerator for 24 hours and then lyophilized.” left out
as §3
as §5, with “Native, initiator and polymer conjugate solution (10 μL, 20 μM of Uricase) was added to the substrate solution.” left out

In the case of `CC(=O)SCC[N+](C)(C)C.[I-]` [acetylthiocholine iodide], the KM [1] is reported as “undetectable”, the kcat [1] is reported as “undetectable” and the kcat/KM [1] is reported as “undetectable”. For the same compound, the “KM increase versus AChE-neutral initiator” value [2] was “about 2.4 ×”.

`O=c1[nH]c(=O)c2[nH]c(=O)[nH]c2[nH]1` [uric acid] showed a Km [3] of 119 ± 9.7 µM, a kcat [3] of 0.18 ± 0.01 s⁻¹ and a kcat/KM [3] of 0.002 ± 0.0006 µM⁻¹ s⁻¹. For the same compound, the Km [4] was 25.4 ± 1.4 µM, the kcat [4] was 2.14 ± 0.04 s⁻¹ and the kcat/KM [4] was 0.084 ± 0.005 µM⁻¹ s⁻¹. For the same compound, the KM [5] was “undetectable”, the kcat [5] was “undetectable” and the kcat/KM [5] was “undetectable”. The Km [6] was 22 ± 7.6 µM, the kcat [6] was 0.03 ± 0.003 s⁻¹ and the kcat/KM [6] was 0.001 ± 0.0005 µM⁻¹ s⁻¹. The KM [7] was “undetectable”, the kcat [7] was “undetectable” and the kcat/KM [7] was “undetectable”. It also gave a Km [8] of 12.9 ± 0.6 µM, a kcat [8] of 3.42 ± 0.05 s⁻¹ and a kcat/KM [8] of 0.266 ± 0.013 µM⁻¹ s⁻¹. The KM [9] was “undetectable”, the kcat [9] was “undetectable” and the kcat/KM [9] was “undetectable”.
